Tests used:
STOP+/- mice = settings: daily nasal application; cited from earlier work
amnestic MCI = settings: 15 mg twice daily, intranasal, vs placebo; cited from earlier work
ADNP+/- mice = settings: cited from earlier work
[1] = tested on: cerebellar granule neurons; settings: cited from earlier work
tau transgenic mice = settings: daily intranasal treatment over several months; cited from earlier work
[2] = tested on: schizophrenia-related cognitive impairment; settings: 5 mg once daily and 15 mg twice daily vs placebo, 56 patients; cited from earlier work
anti-ADNP (NAP) antibody = settings: incubation of antibody with excess NAP peptide; cited from earlier work
astrocytes or neurons = settings: cited from earlier work
[3] = tested on: Cortical neurons co-cultured with PEE astrocytes; settings: cited from earlier work
[4] = tested on: primary neuronal cell cultures; settings: cited from earlier work
cancer cell division = settings: unlike paclitaxel; cited from earlier work
phosphorylated tau = settings: 12-month-old mice, intranasal ~0.07 mg/kg/day for 3 months; cited from earlier work
[5] = tested on: known cell surface receptors; experiment: Screening NAP on receptor panels; format: binding
Experimental: Fluorescent NAP was found inside cells, in the vicinity of microtubules when it was incubated with cells at 4° C. and at low pH (conditions that exclude receptor-mediated endocytocis) (I. Divinski et al. J Biol Chem 279, 28531-28538 (2004)). Furthermore, NAP activity is independent of its chirality (D. E. Brenneman et al. J Pharmacol Exp Ther 309, 1190-1197 (2004)) and NAP shares sequence similarities with protein sequences that have membrane permeability properties (I. Divinski et al. J Biol Chem 279, 28531-28538 (2004)).

[6] = tested on: gestational day 8.0 mouse embryos; settings: cited from earlier work
P19 cells = experiment: P19 cell neuro-differentiation, Q-PCR of differentiation markers; format: cell-based, mouse; settings: eight days differentiation, 1 μM RA; FIG. 2
Experimental: Mouse Embryonic teratocarcinoma cells were obtained from the American Type Culture Collection (ATCC, Bethesda, Md.); an initial control batch was a kind gift of Dr. Roi Atlas and Professor Irith Ginzburg, the Weizmann Institute of Science, Rehovot, Israel. P19 cells were grown in minimal essential medium (alpha-MEM) containing 5% fetal calf serum, 100 U/ml penicillin and 0.1 mg/ml streptomycin (Biological Industries, Beit Haemek, Israel) in a 5% CO2 incubator at 37° C. […]
Samples with same amount of total RNA were used to synthesize single-strand cDNA with SuperScript […] RNase H Reverse Transcriptase (Invitrogen, Carlsbad, Calif., USA) and a random hexamers adaptor primer according to the manufacturer's instructions. […] ADNP and ADNP2 expression levels in Schizophrenia were determined using specific primers for human ADNP and ADNP2, and normalized to TATA box binding protein. […] RNA from non-differentiated and differentiated P19 cells was isolated and the expression of tubulin β3 and glial fibrillary acidic protein (GFAP) was determined to confirm neuronal differentiation. ADNP and ADNP2 expression levels in P19 cells were determined using specific primers for mouse ADNP and ADNP2. […] The efficiencies of all primers used were calculated as a precursory step using standard curves, according to the equation: E (efficiency)=10^(−1/slope)−1×100 and were near 100% for all primers. […]

ADNP [7] = experiment: Transgene shutoff by doxycycline in rTg(tau(P301L))4510 mice, western blots; format: in vivo, mouse; settings: treated with doxycycline; untreated ratio is 3; FIG. 3D
Experimental: Nuclear ADNP expression was assessed using mouse monoclonal antibody directed against ADNP (1:300 dilution; BD Bioscience) at 150 KD, actin was used as a control. […] C. […] Tau expression was measured in the cytoplasmic fraction; ADNP was measured in nuclear fractions. D. Western blots showing expression level of ADNP in transgenic and non-transgenic mice after doxycycline treatment.

β-tubulin = settings: NAP affinity columns; cited from earlier work
ADNP [8] = settings: 120 min 75% xenon and 25% oxygen vs 75% nitrogen and 25% oxygen; RT-PCR, western blot, immunohistochemistry; cited from earlier work
cell cultures = settings: cited from earlier work

CC[C@H](C)[C@H](NC(=O)[C@H](CO)NC(=O)[C@@H](NC(=O)[C@@H]1CCCN1C(=O)[C@H](C)NC(=O)[C@@H](N)CC(N)=O)C(C)C)C(=O)N1CCC[C@H]1C(=O)N[C@@H](CCC(N)=O)C(=O)O [NAP, Asn-Ala-Pro-Val-Ser-Ile-Pro-Gln]
object recognition (STOP+/- mice): significantly improved to STOP+/+ performance level
open field locomotor activity (STOP+/- mice): significantly decreased
spatial memory (STOP+/- mice): ameliorated
cognitive tests that primarily assessed attention and working memory function (amnestic MCI): general pattern of improvement
cognitive deficits (ADNP+/- mice; 0.5 μg/mouse/day): partially ameliorated
tau hyperphosphorylation (ADNP+/- mice; 0.5 μg/mouse/day): reduced
amount of active GSK-3β (ADNP+/- mice; NAP treatment): reduced
axon outgrowth ([1]; cerebellar granule neurons, via Fyn kinase and Cas phosphorylation): potentiated axon outgrowth
short-term memory (tau transgenic mice): improving
tau phosphorylation and "NFTs" (tau transgenic mice): reduced
UCSD Performance-based Skills Assessment (UPSA) test, secondary endpoint [2]: statistically significant positive treatment effect
tests that measured visual learning and working memory [2]: Numerical positive treatment effects
verbal learning [2]: favoring placebo
reduction of fluorescence staining (anti-ADNP (NAP) antibody): > 80%
microtubule depolymerization by nocodazole (astrocytes or neurons; neurons): reversed
tubulin zinc sheet formation and cell death (astrocytes or neurons; treatment with zinc chloride): protected
dendritic and axonal growth or branching, density of synaptic structures ([3]; SNAP-25 and synaptophysin staining): significantly increased
CREB phosphorylation [3]: increase
activity of ERK and Akt ([3]; time-dependent): significantly stimulated
neurite outgrowth [4]: induced neurite outgrowth
cancer cell division (cancer cell division): does not affect
decrease in phosphorylated tau at Ser202/Thr205 and Thr231 residues (phosphorylated tau): 70%
binding to known cell surface receptors [5]: did not reveal any significant binding
percentage of embryos that had begun to close their neural folds ([6]; co-incubation with ethanol and NAP): significantly increased
alcohol-induced serotonergic loss during brain development ([6]; in vivo, caudal raphe): protected

CC1=C(/C=C/C(C)=C/C=C/C(C)=C/C(=O)O)C(C)(C)CCC1 [RA, all-trans retinoic acid]
glial fibrillar acidic protein (GFAP) expression, Q-PCR (P19 cells): up-regulation
tubulinβ3 expression, Q-PCR (P19 cells): up-regulation

C[C@H]1c2cccc(O)c2C(=O)C2=C(O)[C@]3(O)C(=O)C(C(N)=O)=C(O)[C@@H](N(C)C)[C@@H]3[C@@H](O)[C@@H]21 [doxycycline]
ADNP protein expression ratio between the Tg and non-Tg mice (ADNP [7]): 1

CCO [ethanol]
IC50 ([1]; by inhibiting NAP activation of Fyn kinase and Cas, read-out: IC(50), block of NAP-mediated axon outgrowth): 17 mM

CC(=O)O[C@H]1C(=O)[C@@]2(C)[C@H]([C@H](OC(=O)c3ccccc3)[C@]3(O)C[C@H](OC(=O)[C@H](O)[C@@H](NC(=O)c4ccccc4)c4ccccc4)C(C)=C1C3(C)C)[C@]1(OC(C)=O)CO[C@@H]1C[C@@H]2O [paclitaxel]
NAP-tubulin interaction (β-tubulin): reduced

[Xe] [xenon]
ADNP expression in neonatal rat brain (ADNP [8]): differentially expressed

B1: recombinant ADNP: recombinant activity-dependent neuroprotective protein (protein, UniProt Q9H2P0 1-1102, looked up)
Activity-dependent …: MFQLPVNNLGSLRKARKTVKKILSDIGLEYCKEHIEDFKQFEPNDFYLKNTTWEDVGLWDPSLTKNQDYRTKPFCCSACPFSSKFFSAYKSHFRNVHSEDFENRILLNCPYCTFNADKKTLETHIKIFHAPNASAPSSSLSTFKDKNKNDGLKPKQADSVEQAVYYCKKCTYRDPLYEIVRKHIYREHFQHVAAPYIAKAGEKSLNGAVPLGSNAREESSIHCKRCLFMPKSYEALVQHVIEDHERIGYQVTAMIGHTNVVVPRSKPLMLIAPKPQDKKSMGLPPRIGSLASGNVRSLPSQQMVNRLSIPKPNLNSTGVNMMSSVHLQQNNYGVKSVGQGYSVGQSMRLGLGGNAPVSIPQQSQSVKQLLPSGNGRSYGLGSEQRSQAPARYSLQSANASSLSSGQLKSPSLSQSQASRVLGQSSSKPAAAATGPPPGNTSSTQKWKICTICNELFPENVYSVHFEKEHKAEKVPAVANYIMKIHNFTSKCLYCNRYLPTDTLLNHMLIHGLSCPYCRSTFNDVEKMAAHMRMVHIDEEMGPKTDSTLSFDLTLQQGSHTNIHLLVTTYNLRDAPAESVAYHAQNNPPVPPKPQPKVQEKADIPVKSSPQAAVPYKKDVGKTLCPLCFSILKGPISDALAHHLRERHQVIQTVHPVEKKLTYKCIHCLGVYTSNMTASTITLHLVHCRGVGKTQNGQDKTNAPSRLNQSPSLAPVKRTYEQMEFPLLKKRKLDDDSDSPSFFEEKPEEPVVLALDPKGHEDDSYEARKSFLTKYFNKQPYPTRREIEKLAASLWLWKSDIASHFSNKRKKCVRDCEKYKPGVLLGFNMKELNKVKHEMDFDAEWLFENHDEKDSRVNASKTADKKLNLGKEDDSSSDSFENLEEESNESGSPFDPVFEVEPKISNDNPEEHVLKVIPEDASESEEKLDQKEDGSKYETIHLTEEPTKLMHNASDSEVDQDDVVEWKDGASPSESGPGSQQVSDFEDNTCEMKPGTWSDESSQSEDARSSKPAAKKKATMQGDREQLKWKNSSYGKVEGFWSKDQSQWKNASENDERLSNPQIEWQNSTIDSEDGEQFDNMTDGVAEPMHGSLAGVKLSSQQA
protection against severe oxidative stress and Aβ toxicity (cell cultures): potent protection

Source: patent US9518994B2, “Method for diagnosing and monitoring schizophrenia and tauopathies” (Ramot at Tel Aviv University, priority 2010, dated 2016)
